Data published in US9399649B2, “Compounds for treating spinal muscular atrophy” (PTC Therapeutics Inc., priority 2012, dated 2016).

Tests used:
[1] = test system: Smn protein; assay: Smn protein assay in tissues of adult C/C-allele SMA mice; assay type: in vivo; conditions: 10 mg/kg BID orally for 10 days, brain, spinal cord, muscle and liver, relative to vehicle group, FIG. 11
Experimental: This Smn protein assay compares tissues from test compound treated mice with those from DMSO vehicle treated mice to determine the increase in levels of Smn protein produced from the human SMN2 gene.
The tissue samples in Safe-Lock tubes are weighed and the volume of RIPA buffer containing the protease inhibitor cocktail is added based on the weight to volume ratios for each type of tissue: Brain (50 mgmL), Muscle (50 mgmL) and Spinal Cord (25 mgmL).
Tissues are homogenized using the TissueLyzer by bead milling. 5 mm stainless steel beads are added to the sample and shaken vigorously for 5 minutes at 30 Hz in the TissueLyzer. […] Fluorescence for each well of the plate at 665 nm and 620 nm is measured on an EnVision multilabel plate reader (Perkin-Elmer). The total protein in the tissue homogenate is measured using the BCA assay according to the manufacturer's protocol.
The normalized fluorescence signal is calculated for each sample, Blank and vehicle control well by dividing the signal at 665 nm by the signal at 620 nm. Normalizing the signal accounts for possible fluorescence quenching due to the matrix effect of the tissue homogenate. […] The ΔF value for each tissue sample well is divided by the total protein quantity (determined using the BCA assay) for that tissue sample. […]

[2] = test system: human SMN1 minigene full length and Δ7 mRNA; assay: Human SMN1 minigene mRNA end-point semi-quantitative RT-PCR splicing assay in cultured cells; assay type: cell-based; conditions: HEK293H cells transfected with SMN1-A minigene, increasing concentrations, 7 hours, FIG. 17
Excerpt: The RT-PCR assay is used to visualize and quantify the levels of the human SMN1 minigene full length and Δ7 mRNA in primary cells and cell lines expressing the human SMN1 minigene construct treated with a test compound.
Using the procedure for the preparation of the SMN2 minigene construct described in Biological Example 1, the SMN1 version of the minigene is generated by changing the sixth nucleotide of exon 7 (a thymine residue) of the SMN2-A minigene construct to cytosine using site directed mutagenesis. Thus, similar to the SMN2-A minigene construct, the SMN1 minigene construct has a single adenine residue inserted after nucleic residue 48 of exon 7. The SMN1 minigene construct is referred to as SMN1-A.
HEK293H cells (10,000 cells/well/199 μL) were transfected, using FuGENE-6 reagent, in a 96-well plate with 15 ng of the SMN1-A minigene reporter plasmid per well. Cells were incubated for 24 hours following transfection. Test compounds were serially diluted 3.16-fold in 100% DMSO to generate a 7-point concentration curve. A solution of test compound (1 μL, 200× in DMSO) was added to each test well. 1 μL DMSO was added to each control well. The plate was incubated for 7 hours in a cell culture incubator (37° C., 5% CO2, 100% relative humidity). The cells were then lysed in Cells-To-Ct lysis buffer and the lysates were stored at 80° C.
Two SMN spliced mRNA are generated from the SMN1 minigene. The term “SMN1 minigene FL” refers to the first spliced product containing exon 7, corresponding to full length SMN1 mRNA. The term “SMN1 minigene A7” refers to the second product lacking exon 7.
SMN minigene FL and Δ7 mRNA are amplified using the primers in Table 11. Primer SMN Forward C (SEQ ID NO. 11) hybridizes to a nucleotide sequence in exon 6 (nucleotide 43 to nucleotide 63), primer SMN Reverse A (SEQ ID NO. 2) hybridizes to a nucleotide sequence in the coding sequence of Firefly luciferase. The combination of these two oligonucleotides detects only SMN1 or SMN2 minigenes (RT-PCR) and will not detect endogenous SMN1 or SMN2 genes. Since the SMA patient cells used in Example 16 were transfected with only the human SMN1 minigene, RT-PCR can visualize and quantify only SMN1 minigene full-length and SMN1 minigene Δ7 mRNA.
To synthesize cDNA, 5 μL of lysate, 4 μL of 5× iScript reaction mix, 1 μL of reverse transcriptase, and 10 μL of water are combined and incubated 5 min at 25° C. followed by 30 min at 42° C., followed by 5 min at 85° C. The cDNA solution is stored at −20° C.
To perform endpoint PCR, 5 μL of cDNA, 0.2 μL of 100 μM forward primer, 0.2 μL of 100 μM reverse primer, and 22.5 μL of polymerase super mix are combined in a 96 well semiskirted PCR plate. PCR is carried out at the following temperatures for the indicated time: Step 1: 94° C. (2 min), Step 2: 94° C. […]

| SMILES | total protein normalized Smn level in tissues [1] | SMN1 minigene FL mRNA (gel band) [2] | SMN1 minigene Δ7 mRNA (gel band) [2] |
| --- | --- | --- | --- |
| Cc1cn2cc(-c3cc4ccc(N5CCN(C)CC5)cc4c(=O)o3)nc2c(C)n1 [Cpd 65, 3-(6,8-dimethylimidazo[1,2-a]pyrazin-2-yl)-7-(4-methylpiperazin-1-yl)-1H-isochromen-1-one] | increased in brain, spinal cord, muscle and liver tissues | progressively more SMN1 minigene FL mRNA | less SMN1 minigene Δ7 mRNA |
| Cc1cn2cc(-c3cc4ccc(N5CCN6CCC[C@H]6C5)cc4c(=O)o3)nc2c(C)n1 [Cpd 69, 3-(6,8-dimethylimidazo[1,2-a]pyrazin-2-yl)-7-[(8aS)-hexahydropyrrolo[1,2-a]pyrazin-2(1H)-yl]-1H-isochromen-1-one] | increased in brain, spinal cord, muscle and liver tissues | progressively more SMN1 minigene FL mRNA | less SMN1 minigene Δ7 mRNA |
